# Experimental data published in patent US11117900B2 (Vertex Pharmaceuticals Incorporated, priority 2012, dated 2021).
# System: HCT116 colorectal cancer cells
# Assay: Cisplatin sensitization assay (96 h MTS cell viability);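 also: compound concentration needed to lower the IC50 of Cisplatin alone by a set fold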
# Format: cell-based
# Conditions: Cisplatin sensitization value
# Summary of the method: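 HCT116 cells were dosed simultaneously with compound and cisplatin as a full matrix of 2-fold serial dilutions from 10 μM top final concentration. Incubation was 96 h at 37° C., 5% CO2, followed by 1 h with MTS reagent for the viability read-out. Sensitization values were binned into +++, ++ and + categories.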
row,Compound,Cisplatin Sensitization Assay
1,"Nc1nn2cc(F)cnc2c1C(=O)Nc1cnccc1-n1ccnc1C(F)(F)F [I-N-219, 2-amino-6-fluoro-N-(4-(2-(trifluoromethyl)-1H-imidazol-1-yl)pyridin-3-yl)pyrazolo[1,5-a]pyrimidine-3-carboxamide]",+++ (Compounds with a Cisplatin sensitization value of <0.02 μM are marked with “+++.”)
2,"CC1(C)CCCN1c1ccncc1NC(=O)c1c(N)nn2cc(F)cnc12 [I-N-220, 2-amino-N-(4-(2,2-dimethylpyrrolidin-1-yl)pyridin-3-yl)-6-fluoropyrazolo[1,5-a]pyrimidine-3-carboxamide]",++ (Compounds with a Cisplatin sensitization value >0.02 μM but <0.2 μM are marked with “++.”)
3,"CS(=O)(=O)C1CCCN(c2ccncc2NC(=O)c2c(N)nn3cc(F)cnc23)C1 (centres unmarked) [I-N-221, 2-amino-6-fluoro-N-(4-(3-(methylsulfonyl)piperidin-1-yl)pyridin-3-yl)pyrazolo[1,5-a]pyrimidine-3-carboxamide]",++ (Compounds with a Cisplatin sensitization value >0.02 μM but <0.2 μM are marked with “++.”)
4,"Nc1nn2cc(F)cnc2c1C(=O)Nc1cnccc1N1CC(=O)N2CCCC2C1 (centres unmarked) [I-N-222, 2-amino-6-fluoro-N-(4-(4-oxohexahydropyrrolo[1,2-a]pyrazin-2(1H)-yl)pyridin-3-yl)pyrazolo[1,5-a]pyrimidine-3-carboxamide]",++ (Compounds with a Cisplatin sensitization value >0.02 μM but <0.2 μM are marked with “++.”)
5,"Cc1ccnn1-c1ccncc1NC(=O)c1c(N)nn2cc(F)cnc12 [I-N-223, 2-amino-6-fluoro-N-(4-(5-methyl-1H-pyrazol-1-yl)pyridin-3-yl)pyrazolo[1,5-a]pyrimidine-3-carboxamide]",++ (Compounds with a Cisplatin sensitization value >0.02 μM but <0.2 μM are marked with “++.”)
6,"CN1C[C@@H]2CCN(c3ccncc3NC(=O)c3c(N)nn4cc(F)cnc34)C[C@@H]2C1=O [I-N-224, 2-amino-6-fluoro-N-(4-((3aR,7aR)-2-methyl-3-oxohexahydro-1H-pyrrolo[3,4-c]pyridin-5(6H)-yl)pyridin-3-yl)pyrazolo[1,5-a]pyrimidine-3-carboxamide]",+ (Compounds with a Cisplatin sensitization value >0.2 μM but <5 μM are marked with “+.”)
7,"Cc1ccn(-c2ccncc2NC(=O)c2c(N)nn3cc(F)cnc23)n1 [I-N-225, 2-amino-6-fluoro-N-(4-(3-methyl-1H-pyrazol-1-yl)pyridin-3-yl)pyrazolo[1,5-a]pyrimidine-3-carboxamide]",++ (Compounds with a Cisplatin sensitization value >0.02 μM but <0.2 μM are marked with “++.”)
8,"Nc1nn2cc(F)cnc2c1C(=O)Nc1cnccc1N1CCC2(CC1)COC2 [I-N-226, N-(4-(2-oxa-7-azaspiro[3.5]nonan-7-yl)pyridin-3-yl)-2-amino-6-fluoropyrazolo[1,5-a]pyrimidine-3-carboxamide]",+++ (Compounds with a Cisplatin sensitization value of <0.02 μM are marked with “+++.”)
9,"CN1CCOCC1C(=O)N1CCN(c2c(F)cncc2NC(=O)c2c(N)nn3cc(F)cnc23)CC1 (centres unmarked) [I-N-227, 2-amino-6-fluoro-N-(5-fluoro-4-(4-(4-methylmorpholine-3-carbonyl)piperazin-1-yl)pyridin-3-yl)pyrazolo[1,5-a]pyrimidine-3-carboxamide]",+++ (Compounds with a Cisplatin sensitization value of <0.02 μM are marked with “+++.”)
10,"Nc1nn2cc(F)cnc2c1C(=O)Nc1cncc(F)c1N1CCN(CC(=O)N2CCC2)CC1 [I-N-228, 2-amino-N-(4-(4-(2-(azetidin-1-yl)-2-oxoethyl)piperazin-1-yl)-5-fluoropyridin-3-yl)-6-fluoropyrazolo[1,5-a]pyrimidine-3-carboxamide]",+++ (Compounds with a Cisplatin sensitization value of <0.02 μM are marked with “+++.”)
11,"CN1CC2(CCN(c3c(F)cncc3NC(=O)c3c(N)nn4cc(F)cnc34)CC2)OC1=O [I-N-229, 2-amino-6-fluoro-N-(5-fluoro-4-(3-methyl-2-oxo-1-oxa-3,8-diazaspiro[4.5]decan-8-yl)pyridin-3-yl)pyrazolo[1,5-a]pyrimidine-3-carboxamide]",+++ (Compounds with a Cisplatin sensitization value of <0.02 μM are marked with “+++.”)
12,"Nc1nn2cc(F)cnc2c1C(=O)Nc1cnccc1N1CCC(N2CCCC2=O)CC1 [I-N-230, 2-amino-6-fluoro-N-(4-(4-(2-oxopyrrolidin-1-yl)piperidin-1-yl)pyridin-3-yl)pyrazolo[1,5-a]pyrimidine-3-carboxamide]",+++ (Compounds with a Cisplatin sensitization value of <0.02 μM are marked with “+++.”)
13,"CN1CC2(CCC1=O)CCN(c1ccncc1NC(=O)c1c(N)nn3cc(F)cnc13)CC2 [I-N-231, 2-amino-6-fluoro-N-(4-(2-methyl-3-oxo-2,9-diazaspiro[5.5]undecan-9-yl)pyridin-3-yl)pyrazolo[1,5-a]pyrimidine-3-carboxamide]",+++ (Compounds with a Cisplatin sensitization value of <0.02 μM are marked with “+++.”)
14,"Nc1nn2cc(F)cnc2c1C(=O)Nc1cncc(F)c1N1CC(=O)N2CCCC2C1 (centres unmarked) [I-N-232, 2-amino-6-fluoro-N-(5-fluoro-4-(4-oxohexahydropyrrolo[1,2-a]pyrazin-2(1H)-yl)pyridin-3-yl)pyrazolo[1,5-a]pyrimidine-3-carboxamide]",++ (Compounds with a Cisplatin sensitization value >0.02 μM but <0.2 μM are marked with “++.”)
15,"CN1CCN2CCN(c3ccncc3NC(=O)c3c(N)nn4cc(F)cnc34)CC2C1=O (centres unmarked) [I-N-233, 2-amino-6-fluoro-N-(4-(8-methyl-9-oxohexahydro-1H-pyrazino[1,2-a]pyrazin-2(6H)-yl)pyridin-3-yl)pyrazolo[1,5-a]pyrimidine-3-carboxamide]",++ (Compounds with a Cisplatin sensitization value >0.02 μM but <0.2 μM are marked with “++.”)
16,"CN(C)C(=O)C1CN(c2ccncc2NC(=O)c2c(N)nn3cc(F)cnc23)CCO1 (centres unmarked) [I-N-234, 4-(3-(2-amino-6-fluoropyrazolo[1,5-a]pyrimidine-3-carboxamido)pyridin-4-yl)-N,N-dimethylmorpholine-2-carboxamide]",+ (Compounds with a Cisplatin sensitization value >0.2 μM but <5 μM are marked with “+.”)
17,"CN1C(=O)CCC12CCN(c1ccncc1NC(=O)c1c(N)nn3cc(F)cnc13)CC2 [I-N-235, 2-amino-6-fluoro-N-(4-(1-methyl-2-oxo-1,8-diazaspiro[4.5]decan-8-yl)pyridin-3-yl)pyrazolo[1,5-a]pyrimidine-3-carboxamide]",++ (Compounds with a Cisplatin sensitization value >0.02 μM but <0.2 μM are marked with “++.”)
18,"CN1CC2(CCN(c3ccncc3NC(=O)c3c(N)nn4cc(F)cnc34)CC2)CC1=O [I-N-236, 2-amino-6-fluoro-N-(4-(2-methyl-3-oxo-2,8-diazaspiro[4.5]decan-8-yl)pyridin-3-yl)pyrazolo[1,5-a]pyrimidine-3-carboxamide]",+++ (Compounds with a Cisplatin sensitization value of <0.02 μM are marked with “+++.”)
19,Cc1cncc(NC(=O)c2c(N)nn3cc(F)cnc23)c1-n1nccc1C [I-N-237],+ (Compounds with a Cisplatin sensitization value >0.2 μM but <5 μM are marked with “+.”)
20,"Nc1nn2cc(F)cnc2c1C(=O)Nc1cnccc1N1CCN2C(=O)OCC2C1 (centres unmarked) [I-N-238, 2-amino-6-fluoro-N-(4-(3-oxotetrahydro-1H-oxazolo[3,4-a]pyrazin-7(3H)-yl)pyridin-3-yl)pyrazolo[1,5-a]pyrimidine-3-carboxamide]",++ (Compounds with a Cisplatin sensitization value >0.02 μM but <0.2 μM are marked with “++.”)
21,"Nc1nn2cc(F)cnc2c1C(=O)Nc1cncc(F)c1N1CCC2(CC1)COC2 [I-N-239, 2-amino-6-fluoro-N-(5-fluoro-4-(2-oxa-7-azaspiro[3.5]nonan-7-yl)pyridin-3-yl)pyrazolo[1,5-a]pyrimidine-3-carboxamide]",+++ (Compounds with a Cisplatin sensitization value of <0.02 μM are marked with “+++.”)
22,"CN1CCN2CCN(c3c(F)cncc3NC(=O)c3c(N)nn4cc(F)cnc34)CC2C1=O (centres unmarked) [I-N-240, 2-amino-6-fluoro-N-(5-fluoro-4-(8-methyl-9-oxohexahydro-1H-pyrazino[1,2-a]pyrazin-2(6H)-yl)pyridin-3-yl)pyrazolo[1,5-a]pyrimidine-3-carboxamide]",++ (Compounds with a Cisplatin sensitization value >0.02 μM but <0.2 μM are marked with “++.”)
23,"Nc1nn2cc(F)cnc2c1C(=O)Nc1cnccc1N1CCC(c2ncon2)CC1 [I-N-241, N-(4-(4-(1,2,4-oxadiazol-3-yl)piperidin-1-yl)pyridin-3-yl)-2-amino-6-fluoropyrazolo[1,5-a]pyrimidine-3-carboxamide]",+++ (Compounds with a Cisplatin sensitization value of <0.02 μM are marked with “+++.”)
24,"Cc1ncnn1-c1c(F)cncc1NC(=O)c1c(N)nn2cc(F)cnc12 [I-N-242, 2-amino-6-fluoro-N-(5-fluoro-4-(5-methyl-1H-1,2,4-triazol-1-yl)pyridin-3-yl)pyrazolo[1,5-a]pyrimidine-3-carboxamide]",+ (Compounds with a Cisplatin sensitization value >0.2 μM but <5 μM are marked with “+.”)
25,"CC1(S(C)(=O)=O)CCN(c2ccncc2NC(=O)c2c(N)nn3cc(F)cnc23)CC1 [I-N-243, 2-amino-6-fluoro-N-(4-(4-methyl-4-(methylsulfonyl)piperidin-1-yl)pyridin-3-yl)pyrazolo[1,5-a]pyrimidine-3-carboxamide]",+++ (Compounds with a Cisplatin sensitization value of <0.02 μM are marked with “+++.”)
26,"Nc1nn2cc(F)cnc2c1C(=O)Nc1cnccc1N1CCN2C(=O)CCCC2C1 (centres unmarked) [I-N-244, 2-amino-6-fluoro-N-(4-(6-oxohexahydro-1H-pyrido[1,2-a]pyrazin-2(6H)-yl)pyridin-3-yl)pyrazolo[1,5-a]pyrimidine-3-carboxamide]",+++ (Compounds with a Cisplatin sensitization value of <0.02 μM are marked with “+++.”)
